Where two headings read alike, the source gives them in different places.

The subject of this experiment is HIV-1 fusion. The experiment is described as follows: cells. The format is cell-based. As for the experimental part: The gp160 induced cell-cell fusion assay uses a HeLa P4 cell line and a CHO-Tat10 cell line.
The HeLa P4 cell line expresses CCR5 and CD4 and has been transfected with HIV-1 LTR-β-Galactosidase. The media for this cell line is Dulbecco modified eagle's medium (D-MEM) (without L-glutamine) containing 10% foetal calf serum (FCS), 2 mM L-glutamine, penicillin/streptomycin (Pen/Strep; 100 U/mL penicillin+[…] streptomycin), and 1 μg/ml puromycin.
The CHO cell line is a Tat (transcriptional trans activator)-expressing clone from a CHO JRR17.1 cell line that has been transfected with pTat puro plasmid. The media for this cell line is rich medium for mammalian cell culture originally developed at Roswell Park Memorial Institute RPMI1640 (without L-glutamine) containing 10% FCS, 2 mM L-glutamine, 0.5 mg/ml Hygromycin B and 12 μg/ml puromycin. The CHO JRR17.1 line expresses gp160 (JRFL) and is a clone that has been selected for its ability to fuse with a CCR5/CD4 expressing cell line.
Upon cell fusion, Tat present in the CHO cell is able to transactivate the HIV-1 long terminal repeat (LTR) present in the HeLa cell leading to the expression of the β-Galactosidase enzyme. This expression is then measured using a Fluor Ace™ β-Galactosidase reporter assay kit (Bio-Rad cat no. 170-3150). This kit is a quantitative fluorescent assay that determines the level of expression of β-galactosidase using 4-methylumbelliferyl-galactopyranoside (MUG) as substrate. β-Galactosidase hydrolyses the fluorogenic substrate resulting in release of the fluorescent molecule 4-methylumbelliferone (4 MU). Fluorescence of 4-methylumbelliferone is then measured on a fluorometer using an excitation wavelength of 360 nm and emission wavelength of 460 nm.

The mark [1] stands for this setting: HIV cell fusion assay, HeLa P4 (CCR5/CD4) and CHO-Tat10 (gp160 JRFL) cells, read-out: IC50.

For `Cc1ccnc(C)c1C(=O)N1CCC(C)(N2CC[C@@H](N(Cc3ccccc3)C(=O)C3CC3)C2)CC1` [Example 62], the IC50 – broadly, the concentration needed to halve the response being measured – under setting [1] is 0.00034 µM.

For the compound `Cc1ncnc(C)c1C(=O)N1CCC(C)(N2CC[C@@H](N(Cc3ccccc3)C(=O)C3CC3)C2)CC1` [Example 63], the concentration for half-maximal inhibition (IC50) under setting [1] came to 0.00818 µM.

For the compound `COCC(=O)N(Cc1ccccc1F)[C@@H]1CCN(C2(C)CCN(C(=O)c3c(C)ncnc3C)CC2)C1` [Example 64], the IC50 under setting [1] is 0.0166 µM.

As for `Cc1cc[n+]([O-])c(C)c1C(=O)N1CCC(C)(N2CC[C@@H](N(Cc3ccccc3)C(=O)C3CC3)C2)CC1` [Example 65], under setting [1], the IC50 amounted to 0.0265 µM.

Turning to `COCC(=O)N(Cc1ccccc1F)[C@@H]1CCN(C2(C)CCN(C(=O)c3ccc(F)cc3Cl)CC2)C1` [Example 66], the IC50 under setting [1] was found to be 0.0285 µM.

`Cc1ncnc(C)c1C(=O)N1CCC(C)(N2CC[C@@H](N(Cc3ccccc3)C(=O)C3CC(F)(F)C3)C2)CC1` [Example 67]: the IC50 under setting [1] was determined as 0.0443 µM.

Turning to `CCc1noc(C)c1C(=O)N1CCC(C)(N2CC[C@@H](N(Cc3ccccc3)C(=O)C3CC3)C2)CC1` [Example 68], under setting [1], the IC50 turned out to be 0.0616 µM.

Consider `Cc1cccc(C)c1C(=O)N1CCC(C)(N2CC[C@@H](N(C=O)Cc3ccccc3F)C2)CC1` [Example 69], for which the half-maximal inhibitory concentration (IC50) under setting [1] came out at 0.123 µM.

Consider `Cc1ccnc(C)c1C(=O)N1[C@@H]2CC[C@H]1C[C@H](N1CC[C@@H](N(Cc3ccccc3)C(=O)C3CC3)C1)C2` [Example 70, N-benzyl-N-((3R)-1-[(3-exo)-8-[(2,4-dimethylpyridin-3-yl)carbonyl]-8-azabicyclo[3.2.1]oct-3-yl]pyrrolidin-3-yl)cyclopropanecarboxamide], for which the 50% inhibitory concentration (IC50) (Human immunodeficiency virus 1, HeLaP4) was 0.00265 µM.

In the case of `Cc1ncnc(C)c1C(=O)N1C2CCC1CC(N1CCC(N(Cc3ccccc3)C(=O)C3CC3)C1)C2` (centres unmarked) [Example 71], the 50% inhibitory concentration (IC50) under setting [1] was determined as 0.00427 µM.

Turning to `Cc1ccccc1C(=O)N1C2CCC1CC(N1CCC(N(Cc3ccccc3)C(=O)C3CC3)C1)C2` (centres unmarked) [Example 72], the IC50 under setting [1] came out at 0.0973 µM.

Values taken from patent publication US20090124636A1, “CHEMICAL COMPOUNDS” (priority 2006, published 2009).
